The values that follow come from ChEMBL document CHEMBL1201862, “PubChem BioAssay data set” (2004).

Assay in all cases: inhibition of tumour cell growth, NCI panel, 48 h
In test [1] the test system is SF-268.
Test [2] has as its system EKVX.
The subject of test [3] is NCI-H23.
Test [4] has as its system IGROV-1.
For test [5], the system named is SK-OV-3.
In test [6] the test system is SW-620.
The subject of test [7] is K562.
Test [8] concerns UACC-257.
In test [9] the test system is NCI-H522.
The subject of test [10] is UACC-62.
The subject of test [11] is CCRF-CEM.
Test [12] concerns 786-0.
Test [13] concerns A549.
Test [14] relates to OVCAR-3.
The subject of test [15] is HL-60.
Test [16] concerns OVCAR-5.

Structures are written as SMILES.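 Five concentrations, 48 hours, 96-well plates. Abbreviation: GI50, concentration required for 50% inhibition of growth.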 Activity calls are given as the source filed them. Rule as the data show it: active = GI50 up to about 1.1 µM and inactive = higher. A value given as a limit tells only on which side of the number the result lay.

With `CCN(CC)CCNc1ccc2ncn3c4c(OC)cccc4c(=O)c1c23`, the GI50 in test [1] was 3.92 µM (inactive); in [2], 4.15 µM (inactive); in test [3], 5.46 µM (inactive); in test [4] it was 5.41 µM (inactive); in test [5], 10.9 µM (inactive); in [6], 1.08 µM (active). In addition, the GI50 is 2.67 µM (inactive) in test [7]; 21.1 µM (inactive) in [8]; 4.4 µM (inactive) in test [9]; 6.68 µM (inactive) in test [10]; 1.73 µM (inactive) in test [11]; 4.83 µM (inactive) in [12]. The GI50 in test [13] is 4.12 µM (inactive); in [14], 0.863 µM (active).

For `S=C(S)NCNC(=S)S`, the GI50 in [1], in test [2], in test [3], in test [4], in test [5] and in test [6] was > 100 µM (inactive) in each case. Also, the GI50 in [7], in test [8], in test [15], in test [16], in test [10] and in [11] was > 100 µM (inactive) in each case. Moreover, the GI50 in test [12], in [13] and in test [14] was > 100 µM (inactive) each time.

As for `Cc1n2nc(N)sc2n[n+]1CC(=O)c1ccccc1`, the GI50 was > 100 µM (inactive) in test [1]; > 100 µM (inactive) in test [2]; > 100 µM (inactive) in test [3]; > 100 µM (inactive) in [4]; 24.3 µM (inactive) in [5]; > 100 µM (inactive) in test [6]. Moreover, the GI50 in test [7] is > 100 µM (inactive); in test [8], > 100 µM (inactive); in test [16] it was > 100 µM (inactive); in test [9] it was > 100 µM (inactive); in test [10], 14 µM (inactive); in test [11], 70 µM (inactive). For the same compound, the GI50 in test [12], in test [13] and in [14] was > 100 µM (inactive) in each case.

As for `O=C(OCc1ccccc1CN1CCOCC1)c1cccc(Br)c1`, the GI50 in test [1] was 62.8 µM (inactive); in [2], 34.5 µM (inactive); in test [3], 27.9 µM (inactive); in [4], 19.7 µM (inactive); in test [5] it was > 100 µM (inactive); in [6], 53.6 µM (inactive). Moreover, the GI50 in [7] was 6.3 µM (inactive); in test [8] it was 24.6 µM (inactive); in test [16] it was 36.3 µM (inactive); in test [9], 20.9 µM (inactive); in test [10], 33.6 µM (inactive); in [12] it was 74.8 µM (inactive). The results for the GI50 in test [13] and in test [14] were 28.7 µM (inactive) and 17.7 µM (inactive), respectively.

As to `Cc1c(N2CCCC2)cc2c(c1NC(=O)c1ccccc1Cl)C(C)(C)CC2(C)C`, the GI50 in [1] is 15.4 µM (inactive); in test [2] it was 14.5 µM (inactive); in test [3], 14.7 µM (inactive); in test [4] it was 13.6 µM (inactive); in test [5], 13.1 µM (inactive); in test [6], 16 µM (inactive). Also, the GI50 in test [7] was 35 µM (inactive); in test [8], 11.7 µM (inactive); in [16] it was 18 µM (inactive); in test [9], 13.1 µM (inactive); in test [10], 10.8 µM (inactive); in test [12], 14.1 µM (inactive). In addition, the GI50 in test [13] was 12.9 µM (inactive); in test [14], 8.3 µM (inactive).

As for `Cc1cc(O)c(C(C)C)cc1NC(=O)Nc1cccc2ccccc12`, the GI50 in test [1] was 17.3 µM (inactive); in [2] it was 14.7 µM (inactive); in test [3] it was 19.3 µM (inactive); in test [4], 14.3 µM (inactive); in test [6], 27.9 µM (inactive); in [7] it was 34.6 µM (inactive). In addition, the GI50 in test [8] is 17.5 µM (inactive); in test [15], 23.8 µM (inactive); in test [16] it was 17.8 µM (inactive); in test [9] it was 15.1 µM (inactive); in test [10] it was 13 µM (inactive); in [12], 15.3 µM (inactive). For the same compound, the GI50 in test [13] is 17.5 µM (inactive); in test [14], 16 µM (inactive).

For the compound `Cc1ccc(S(=O)(=O)[C@@H](Cl)[C@H]2N=C(Cl)NN=C2c2ccccc2)cc1`, the GI50 is 18.3 µM (inactive) in [1]; 37.1 µM (inactive) in [2]; 20.6 µM (inactive) in test [3]; 21.8 µM (inactive) in test [4]; 32.6 µM (inactive) in test [5]; 17.2 µM (inactive) in test [6]. Besides, the GI50 was 29.5 µM (inactive) in test [7]; 20.6 µM (inactive) in test [8]; 85.9 µM (inactive) in test [16]; 15.9 µM (inactive) in test [9]; 15.1 µM (inactive) in test [10]; 20.3 µM (inactive) in [11]. Also, the figures for the GI50 in test [12], in test [13] and in test [14] were 26.4 µM (inactive), 34.1 µM (inactive) and 14.7 µM (inactive), respectively.

As for `CC1=CC2=C(C#N)C(=O)OC2(C)C(c2ccccc2)C1` (stereo unspecified), the GI50 is > 100 µM (inactive) in [1]; > 100 µM (inactive) in test [2]; 6.04 µM (inactive) in [4]; > 100 µM (inactive) in [5]; > 100 µM (inactive) in test [6]; 68.7 µM (inactive) in test [7]. The GI50 in test [8], in test [16], in [9], in test [10], in test [12] and in test [13] was > 100 µM (inactive) in each case. The GI50 in [14] is > 100 µM (inactive).

Turning to `COc1ccc(C(C)NNC(=O)c2ccncc2)cc1OC` (stereo unspecified), the GI50 in test [1] is > 100 µM (inactive); in test [2], > 100 µM (inactive); in test [3], > 100 µM (inactive); in test [4] it was > 100 µM (inactive); in test [5], 26.4 µM (inactive); in test [6], > 100 µM (inactive). Moreover, the GI50 in test [7], in [8], in test [15], in [16], in test [10] and in [11] was > 100 µM (inactive) each time. For the same compound, the GI50 in [12], in test [13] and in [14] was > 100 µM (inactive) throughout.

Consider `Cc1sc2nc3n(c(=O)c2c1C)N=CN(c1ccccc1)C3`, for which the GI50 was 23.4 µM (inactive) in test [1]; > 100 µM (inactive) in test [2]; > 100 µM (inactive) in test [3]; > 100 µM (inactive) in test [4]; > 100 µM (inactive) in [5]; > 100 µM (inactive) in [6]. The GI50 in test [7] is > 100 µM (inactive); in [8], > 100 µM (inactive); in [16] it was > 100 µM (inactive); in test [9], 38.5 µM (inactive); in [10], > 100 µM (inactive); in [11] it was > 100 µM (inactive). Also, the figures for the GI50 in test [12], in test [13] and in test [14] were 15.8 µM (inactive), > 100 µM (inactive) and 19.4 µM (inactive), respectively.

On to `COc1c2c(cc3c1C(=O)c1c(O)cccc1C3=O)CC(O)CC2` (stereo unspecified), for which the GI50 was 29.8 µM (inactive) in test [2]; 20.1 µM (inactive) in test [3]; 85.5 µM (inactive) in test [4]; 21.5 µM (inactive) in [5]; > 100 µM (inactive) in test [6]; > 100 µM (inactive) in test [7]. The GI50 is > 100 µM (inactive) in test [8]; > 100 µM (inactive) in test [15]; > 100 µM (inactive) in test [16]; 28.5 µM (inactive) in test [10]; > 100 µM (inactive) in [11]; 25.6 µM (inactive) in test [12]. Moreover, the GI50 in [13] and in [14] was > 100 µM (inactive) each time.

For the compound `CCC(=N\NC(N)=S)/C(C)=N/O`, the GI50 in test [1], in test [2], in [3], in [4], in [5] and in test [6] was > 100 µM (inactive) each time. In addition, the GI50 in test [7], in [8], in test [16], in test [10], in test [12] and in test [13] was > 100 µM (inactive) throughout. Moreover, in [14], the GI50 is > 100 µM (inactive).

Consider `CCCCCCCCCCCCCCCCCC(=O)Nc1ccn(C2CCC(COP(=O)(O)O)O2)c(=O)n1` (stereo unspecified), for which the GI50 in test [1], in [2], in test [3], in test [4], in test [5] and in [6] was > 100 µM (inactive) throughout. Further, the GI50 in [7], in [8], in [16], in [9], in test [10] and in test [11] was > 100 µM (inactive) each time. The GI50 in test [12], in [13] and in test [14] was > 100 µM (inactive) throughout.

For the compound `CC(C)NC(=O)OCc1c(COC(=O)NC(C)C)n(C)c2c1ccc1cc(Cl)c(Cl)cc12`, the GI50 in [1] was 13.8 µM (inactive); in test [2], 14.8 µM (inactive); in [3], 12.8 µM (inactive); in [4], 10.5 µM (inactive); in [5], 21.6 µM (inactive); in [6] it was 11.3 µM (inactive). Further, the GI50 in test [7] is 4.44 µM (inactive); in test [8] it was 15.7 µM (inactive); in [16] it was 15.4 µM (inactive); in test [9], 1.49 µM (inactive); in [10], 12 µM (inactive); in test [11], 3.33 µM (inactive). The GI50 in test [12] was 7.5 µM (inactive); in test [13], 19.5 µM (inactive); in test [14], 16.6 µM (inactive).
